Results on 1 compound are retold here after patent US20260274836A1, “NOVEL HEPATOSELECTIVE POLYADENYLATING POLYMERASES INHIBITORS AND THEIR METHOD OF USE” (Baruch S. Blumberg Institute, priority 2022, published 2026).

A short description of series [1]: Pharmacokinetics after oral gavage (PO) administration, plasma. It counts as in vivo, CD1 mice. More on the design: AUClast/D: unit not given here. The note with it: 8 mg/kg oral; for Concentration (ng/mL), plasma: individual animals. The method, then: Protocol for pharmacokinetic and tissue distribution studies. The pharmacokinetics of the compounds was studied in CD1 mice after intravenous (IV) and oral gavage (PO) administration. Mouse PK studies was conducted at 3 mg/kg (IV) and 8 mg/kg (PO). Plasma samples obtained from dosed animals, at ten time points, including 5, 15 and 30 minutes and 1, 1.5, 2, 4, 6, 8 and 24 hr post-dose for processing to plasma, were prepared for analysis by means of a single step protein precipitation technique, by adding 200 μL of acetonitrile containing an IS mixture (labetalol, imipramine and diclofenac) to 50 μL aliquots of individual subject samples. Samples were mixed by vortex for homogeneity and then subjected to centrifugation at 4000 rpm for 10 min. The supernatant (200 μL) was collected and injected into the LC-MS/MS for analysis. Pharmacokinetic parameters will be calculated using established non-compartmental methods. The liver distribution of the compounds was studied in the PO group and liver tissues were collected at each time point after PO administration. Accurately weighed whole liver tissues were collected in a 50 mL tube, and 3 volumes per weight of water will be added. Tissue samples were homogenized and 50 μL of the homogenates will be processed along with plasma samples as described above.

Series [2] can be described thus: in vitro. It counts as cell-based. The note with it: human. The method, then:
Assays for the anti-HAV activity of the hepatoselective DHQ compounds were carried out in Huh-7 human hepatoma cells using the 18f-NLuc reporter virus, which expresses nanoluciferase (NLuc) from sequence inserted into the polyprotein coding region of the HM175/18f HAV genome between the VP1pX and 2B coding sequences (Yamane et al., 2019). The method was modified minimally from that described by Misumi et al. for iminosugar compounds (Misumi et al., 2021). Cells (approximately […]) were plated in wells of a 96-well plate with Dulbecco's modified Eagle medium (DMEM) and 10% fetal bovine serum. The cells were inoculated 24 hrs later with 18f-NLuc virus (approximately 10^6-10^7 genome equivalents) in medium containing increasing concentrations of the compounds of interest. […] Luminescence was measured using a Biotek Synergy II multi-mode plate reader (BioTek Instruments). […] Cell toxicity of the compounds was assessed using the WST-1 Cell Proliferation Reagent (Sigma-Aldrich) at the end of the treatment period in parallel cultures of uninfected cells, with WST-1 reagent added to cultures for 1 hr prior to harvest and O.D. reading.
Additional exemplary compounds of the present invention are evaluated for anti-HAV activity in accordance with certain assays described hereinabove. […] Luminescence was measured using a Biotek Synergy II multi-mode plate reader (BioTek Instruments). […]

Series [3] deals with 18f-NLuc reporter virus (HM175/18f HAV). The series is described as follows: Antiviral activity against human hepatitis A virus, 18f-NLuc reporter virus in Huh-7 cells. It counts as cell-based, Human Hepatitis A Virus (Hepatovirus A). The note with it: Hepatovirus A, Huh-7, 48 h, Huh-7 cells, 18f-NLuc virus, 48 hrs. The method, then:
Assay for Antiviral Activity Against Human Hepatitis A Virus (Hepatovirus A).
(§1) Assays for the anti-HAV activity of the hepatoselective DHQ compounds were carried out in Huh-7 human hepatoma cells using the 18f-NLuc reporter virus, which expresses nanoluciferase (NLuc) from sequence inserted into the polyprotein coding region of the HM175/18f HAV genome between the VP1pX and 2B coding sequences (Yamane et al., 2019). The method was modified minimally from that described by Misumi et al. for iminosugar compounds (Misumi et al., 2021). Cells (approximately […]) were plated in wells of a 96-well plate with Dulbecco's modified Eagle medium (DMEM) and 10% fetal bovine serum. The cells were inoculated 24 hrs later with 18f-NLuc virus (approximately 10^6-10^7 genome equivalents) in medium containing increasing concentrations of the compounds of interest. The cells were re-incubated for 48 hrs at 37° C. in a 5% CO2 environment, then lysed in 1× passive lysis buffer (Promega) for 15 min at room temperature. Cell lysates were transferred to an opaque white 96-well plate (Corning, 3912) and NLuc assay carried out using the NLuc GLOW Assay kit (Nanolight Technology). Luminescence was measured using a Biotek Synergy II multi-mode plate reader (BioTek Instruments). The percent inhibition of replication was calculated by determining the reduction in NLuc activity from that expressed by infected cells incubated in parallel in the absence of compound, and 50% inhibitory endpoints estimated by fitting the data to a four parameter variable slope logistic curve using Prism 9 for Mac OS software (GraphPad). Cell toxicity of the compounds was assessed using the WST-1 Cell Proliferation Reagent (Sigma-Aldrich) at the end of the treatment period in parallel cultures of uninfected cells, with WST-1 reagent added to cultures for 1 hr prior to harvest and O.D. reading.
as §1, with “Additional exemplary compounds of the present invention are evaluated for anti-HAV activity in accordance with certain assays described hereinabove. As discussed above, assays” for “Assays”, “10^6-107” for “10^6-10^7”

Molecules are shown by their SMILES.

For orientation: CC50 means the concentration that lowers cell viability or growth by half. What is called EC50 is the concentration needed to bring the measured effect to its halfway point. In turn, `COc1cc2c(cc1OCCCCCCC(=O)O)C[C@@H](C(C)C)n1cc(C(=O)O)c(=O)cc1-2` [Example 6, (S)-9-((6-carboxyhexyl)oxy)-6-isopropyl-10-methoxy-2-oxo-6,7-dihydro-2H-pyrido[2,1-a]isoquinoline-3-carboxylic acid] registered an AUClast/D in series [1] (mean) of 4.33. The compound also registered a F in series [1] (mean) of 5.09%. In addition, the “Concentration (ng/mL), plasma” value in series [1] (8 h) and in series [1] (24 h) was “BLOQ” in each case. Further, in series [2], the CC50 at 48 h is above 10 µM. In series [3], the EC50 is 0.278 µM.
